Values joined by “and” are separate entries in the source; they are usually repeats but may differ in a detail not shown here. Equal values may be shown once. Toxic doses and inconclusive results are not listed. Rule as the data show it: active = T/C of 150% or more; inactive = T/C below 125%.
System: L1210 leukemia ip in BDF1 mice, survival T/C
Experiment: NCI In Vivo Anticancer Drug Screen. Data for tumor model L1210 Leukemia (intraperitoneal) in B6D2F1 (BDF1) mice
Settings: endpoint: mean survival time, higher = longer survival
How it was run: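 In this screen, tumor-bearing mice given compound are compared to those given vehicle, and their survival values are reported as a treated-to-control quotient.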

[1] = dose: 5.0 mg/kg/injection, schedule: Q01DX001 (ip), vehicle: carboxymethylcellulose (CMC)
[2] = dose: 10.0 mg/kg/injection, schedule: Q01DX001 (ip), vehicle: carboxymethylcellulose (CMC)
[3] = dose: 100.0 mg/kg/injection, schedule: Q01DX001 (ip), vehicle: saline
[4] = dose: 200.0 mg/kg/injection, schedule: Q01DX001 (ip), vehicle: saline
[5] = dose: 400.0 mg/kg/injection, schedule: Q01DX001 (ip), vehicle: saline
[6] = dose: 100.0 mg/kg/injection, schedule: Q04DX003 (ip), vehicle: saline
[7] = dose: 200.0 mg/kg/injection, schedule: Q04DX003 (ip), vehicle: saline
[8] = dose: 400.0 mg/kg/injection, schedule: Q04DX003 (ip), vehicle: saline
[9] = dose: 100.0 mg/kg/injection, schedule: Q04DX003 (ip), vehicle: Klucel (hydroxypropylcellulose) (HPC)
[10] = dose: 25.0 mg/kg/injection, schedule: Q01DX009 (ip), vehicle: saline with Tween-80
[11] = dose: 100.0 mg/kg/injection, schedule: Q04DX002 (ip), vehicle: Klucel (hydroxypropylcellulose) (HPC)
[12] = dose: 200.0 mg/kg/injection, schedule: Q04DX002 (ip), vehicle: Klucel (hydroxypropylcellulose) (HPC)
[13] = dose: 400.0 mg/kg/injection, schedule: Q04DX002 (ip), vehicle: Klucel (hydroxypropylcellulose) (HPC)
[14] = dose: 100.0 mg/kg/injection, schedule: Q01DX001 (ip), vehicle: Klucel (hydroxypropylcellulose) (HPC)
[15] = dose: 200.0 mg/kg/injection, schedule: Q01DX001 (ip), vehicle: Klucel (hydroxypropylcellulose) (HPC)
[16] = dose: 400.0 mg/kg/injection, schedule: Q01DX001 (ip), vehicle: Klucel (hydroxypropylcellulose) (HPC)

Measured: T/C

O=c1ccc2ccccc2[nH]1.[Mn]
inactive: [1] 95 % of control | [2] 95 % of control | dose: 20.0 mg/kg/injection, schedule: Q01DX001 (ip), vehicle: carboxymethylcellulose (CMC) 97 % of control | dose: 40.0 mg/kg/injection, schedule: Q01DX001 (ip), vehicle: carboxymethylcellulose (CMC) 97 % of control

O=C1C=CC(=NCl)C=C1
inactive: dose: 1.25 mg/kg/injection, schedule: Q01DX015 (ip), vehicle: carboxymethylcellulose (CMC) 92 % of control | dose: 2.5 mg/kg/injection, schedule: Q01DX015 (ip), vehicle: carboxymethylcellulose (CMC) 91 % of control | [1] 114 % of control | dose: 5.0 mg/kg/injection, schedule: Q01DX015 (ip), vehicle: carboxymethylcellulose (CMC) 95 % of control | [2] 111 % of control

CC(=O)OCC1OC(Sc2cccc3ccccc23)C(OC(C)=O)C(OC(C)=O)C1OC(C)=O (stereo not given)
inactive: [3] 104 % of control | [4] 93 % of control | [5] 98 % of control

CSCS(C)=O (stereo not given)
inactive: [6] 104 % of control | [7] 103 % of control | [8] 103 % of control

CC1(C)COC(c2ccc3c(c2)OCO3)OC1
inactive: dose: 100.0 mg/kg/injection, schedule: Q01DX001 (ip), vehicle: carboxymethylcellulose (CMC) 96 % of control | dose: 200.0 mg/kg/injection, schedule: Q01DX001 (ip), vehicle: carboxymethylcellulose (CMC) 97 % of control | dose: 400.0 mg/kg/injection, schedule: Q01DX001 (ip), vehicle: carboxymethylcellulose (CMC) 94 % of control

O=C(OCC1OC(c2ccccc2)OC1C1OC(c2ccccc2)OC1COC(=O)c1ccccc1)c1ccccc1 (stereo not given)
inactive: [3] 103 % of control | [4] 110 % of control | [5] 110 % of control

CC1CC(Cc2cccc3ccccc23)C(=O)O1 (stereo not given)
inactive: dose: 37.5 mg/kg/injection, schedule: Q01DX009 (ip), vehicle: saline 102 % of control | dose: 75.0 mg/kg/injection, schedule: Q01DX001 (ip), vehicle: saline 97 % of control | dose: 75.0 mg/kg/injection, schedule: Q01DX009 (ip), vehicle: saline 98 % of control | dose: 75.0 mg/kg/injection, schedule: Q04DX003 (ip), vehicle: saline 96 % of control | dose: 150.0 mg/kg/injection, schedule: Q01DX001 (ip), vehicle: saline 97 % of control | dose: 150.0 mg/kg/injection, schedule: Q01DX009 (ip), vehicle: saline 96 % of control | dose: 150.0 mg/kg/injection, schedule: Q04DX003 (ip), vehicle: saline 94 % of control | dose: 300.0 mg/kg/injection, schedule: Q01DX001 (ip), vehicle: saline 98 % of control | dose: 300.0 mg/kg/injection, schedule: Q04DX003 (ip), vehicle: saline 94 % of control

C/C=C/C(O)(C(=O)OCC)C1CCCCC1 (stereo not given)
inactive: dose: 100.0 mg/kg/injection, schedule: Q01DX001 (ip), vehicle: other 107 % of control | dose: 200.0 mg/kg/injection, schedule: Q01DX001 (ip), vehicle: other 98 % of control | dose: 400.0 mg/kg/injection, schedule: Q01DX001 (ip), vehicle: other 102 % of control

CC1(C)CC(Br)C(=O)c2ccccc21 (stereo not given)
inactive: [9] 100 % of control | dose: 200.0 mg/kg/injection, schedule: Q04DX003 (ip), vehicle: Klucel (hydroxypropylcellulose) (HPC) 105 % of control | dose: 400.0 mg/kg/injection, schedule: Q04DX003 (ip), vehicle: Klucel (hydroxypropylcellulose) (HPC) 97 % of control

O=c1c2cccc3cccc(c32)c2nc3ccccc3n12
inactive: dose: 6.25 mg/kg/injection, schedule: Q01DX009 (ip), vehicle: saline with Tween-80 120 % of control | dose: 12.5 mg/kg/injection, schedule: Q01DX009 (ip), vehicle: saline with Tween-80 116 % of control | [10] 100 % of control | dose: 100.0 mg/kg/injection, schedule: Q04DX003 (ip), vehicle: saline with Tween-80 104 % of control | dose: 200.0 mg/kg/injection, schedule: Q04DX003 (ip), vehicle: saline with Tween-80 103 % of control

CCC(/C=C1\[Se]c2ccc(C)cc2N1CC)=C\c1[se]c2ccc(C)cc2[n+]1CC
inactive: dose: 2.0 mg/kg/injection, schedule: Q01DX001 (ip), vehicle: other 103 % of control | dose: 4.0 mg/kg/injection, schedule: Q01DX001 (ip), vehicle: other 101 % of control

CC(C)(C)[CH2][Sn]([CH2]C(C)(C)C)([CH2]C(C)(C)C)[c]1ccc(-c2ccccc2)cc1
inactive: [11] 111 % of control | [12] 92 % of control | [13] 92 % of control

Nc1nc(N)c(N)c(=O)[nH]1
inactive: dose: 25.0 mg/kg/injection, schedule: Q04DX003 (ip), vehicle: Klucel (hydroxypropylcellulose) (HPC) 103 % of control | dose: 50.0 mg/kg/injection, schedule: Q04DX003 (ip), vehicle: Klucel (hydroxypropylcellulose) (HPC) 100 % of control | dose: 100.0 mg/kg/injection, schedule: Q01DX009 (ip), vehicle: saline 109 % of control | [9] 94 % of control and 100 % of control | [6] 107 % of control | dose: 200.0 mg/kg/injection, schedule: Q01DX009 (ip), vehicle: saline 101 % of control | [7] 105 % of control | dose: 400.0 mg/kg/injection, schedule: Q01DX009 (ip), vehicle: saline 101 % of control | [8] 104 % of control

COc1cc([N+](=O)[O-])ccc1S(=O)(=O)F
inactive: dose: 100.0 mg/kg/injection, schedule: Q01DX009 (ip), vehicle: gum acacia 95 % of control | dose: 200.0 mg/kg/injection, schedule: Q01DX009 (ip), vehicle: gum acacia 98 % of control | dose: 400.0 mg/kg/injection, schedule: Q01DX009 (ip), vehicle: gum acacia 90 % of control

O/N=C/c1cccc(CC(O)(C(F)(F)F)C(F)(F)F)n1
inactive: dose: 50.0 mg/kg/injection, schedule: Q04DX002 (ip), vehicle: saline with Tween-80 103 % of control | [14] 98 % of control | dose: 100.0 mg/kg/injection, schedule: Q04DX002 (ip), vehicle: saline with Tween-80 88 % of control | [15] 98 % of control | dose: 200.0 mg/kg/injection, schedule: Q04DX002 (ip), vehicle: saline with Tween-80 109 % of control | [16] 87 % of control | dose: 400.0 mg/kg/injection, schedule: Q04DX002 (ip), vehicle: saline with Tween-80 106 % of control

C[C@H](CCC[C@H](C)OS(=O)(=O)c1ccccc1)OS(=O)(=O)c1ccccc1
inactive: [10] 104 % of control and 112 % of control | dose: 50.0 mg/kg/injection, schedule: Q01DX009 (ip), vehicle: saline with Tween-80 107 % of control and 112 % of control (2×) | dose: 100.0 mg/kg/injection, schedule: Q01DX009 (ip), vehicle: saline with Tween-80 109 % of control | dose: 200.0 mg/kg/injection, schedule: Q01DX009 (ip), vehicle: saline with Tween-80 112 % of control (2×) and 117 % of control

CCOP(=S)(OCC)OP(=S)(OCC)OCC
inactive: dose: 1.0 mg/kg/injection, schedule: Q01DX009 (ip), vehicle: other 108 % of control | dose: 1.0 mg/kg/injection, schedule: Q04DX003 (ip), vehicle: other 100 % of control | dose: 2.0 mg/kg/injection, schedule: Q01DX009 (ip), vehicle: other 90 % of control | dose: 2.0 mg/kg/injection, schedule: Q04DX003 (ip), vehicle: other 97 % of control | dose: 4.0 mg/kg/injection, schedule: Q04DX003 (ip), vehicle: other 100 % of control

C[CH2][Pb]([CH2]C)([CH2]C)[N](C#N)C(=N)N
inactive: dose: 25.0 mg/kg/injection, schedule: Q04DX002 (ip), vehicle: Klucel (hydroxypropylcellulose) (HPC) 97 % of control | dose: 50.0 mg/kg/injection, schedule: Q04DX002 (ip), vehicle: Klucel (hydroxypropylcellulose) (HPC) 101 % of control

Nc1nc(N)c2nc(CNc3ccc(C(=O)NCCCC(=O)O)cc3)cnc2n1 (tested in a mixture with another compound)
inactive: dose: 12.5 mg/kg/injection, schedule: Q01DX001 (ip), vehicle: Klucel (hydroxypropylcellulose) (HPC) 92 % of control | dose: 25.0 mg/kg/injection, schedule: Q01DX001 (ip), vehicle: Klucel (hydroxypropylcellulose) (HPC) 97 % of control | [14] 108 % of control

CC(=O)c1cc(Cl)ccc1O
inactive: [14] 104 % of control | [11] 100 % of control | [15] 106 % of control | [12] 96 % of control | [16] 97 % of control | [13] 89 % of control
